{"source": "paper PMC7414866", "about": "“The Rnf complex is a Na^+ coupled respiratory enzyme in a fermenting bacterium, Thermotoga maritima” (Communications Biology, 2020)", "target": "T1, Na+-F1FO ATP synthase (Thermotoga maritima, UniProt O50550+Q9X1U7+Q9X1V0)", "T1 construct": "gene atpE; native F1FO complex purified with DDM, no tags; 550 kDa on native PAGE; co-purified with Rnf; with ATP synthase gamma chain; ATP synthase subunit delta; ATP synthase epsilon chain; ATP synthase subunit a; ATP synthase subunit b", "test": "ATP hydrolysis (phosphate release) after preincubation", "type": "biochemical", "conditions": "covalent; preincubation without Na+ 30 min room temperature, then 5 min 80 °C; 3 mM K2-ATP, pH 7.4; competes with Na+", "data": [{"molecule": "C(=NC1CCCCC1)=NC1CCCCC1", "note": "[DCCD]", "values": [{"measurement": "inhibition", "value": "DCCD inhibited ATP hydrolysis but inhibition was relieved by addition of Na^+"}]}]}
